The target in test [1] is Insulin receptor (Homo sapiens, UniProt P06213).
Test [2] concerns the target Ephrin type-A receptor 2 (Homo sapiens, UniProt P29317).
Test [3] concerns the target T1, Probable ATP-dependent RNA helicase DDX6 (Homo sapiens, UniProt P26196).
T1 sequence (P26196 whole entry): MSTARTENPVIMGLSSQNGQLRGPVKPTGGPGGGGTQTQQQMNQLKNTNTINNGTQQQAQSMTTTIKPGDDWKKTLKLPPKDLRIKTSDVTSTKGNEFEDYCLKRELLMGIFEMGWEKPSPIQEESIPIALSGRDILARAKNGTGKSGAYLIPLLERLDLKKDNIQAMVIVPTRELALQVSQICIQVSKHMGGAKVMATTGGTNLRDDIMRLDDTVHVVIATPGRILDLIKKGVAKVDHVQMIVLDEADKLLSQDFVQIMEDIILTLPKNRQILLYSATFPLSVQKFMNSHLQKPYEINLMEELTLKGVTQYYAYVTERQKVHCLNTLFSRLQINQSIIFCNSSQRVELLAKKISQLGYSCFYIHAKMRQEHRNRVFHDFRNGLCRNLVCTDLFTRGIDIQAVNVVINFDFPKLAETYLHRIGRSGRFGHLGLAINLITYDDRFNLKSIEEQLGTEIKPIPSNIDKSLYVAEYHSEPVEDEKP

The target of test [4] is T2, Cyclin-G-associated kinase (Homo sapiens, UniProt O14976).
T2 sequence (O14976 whole entry): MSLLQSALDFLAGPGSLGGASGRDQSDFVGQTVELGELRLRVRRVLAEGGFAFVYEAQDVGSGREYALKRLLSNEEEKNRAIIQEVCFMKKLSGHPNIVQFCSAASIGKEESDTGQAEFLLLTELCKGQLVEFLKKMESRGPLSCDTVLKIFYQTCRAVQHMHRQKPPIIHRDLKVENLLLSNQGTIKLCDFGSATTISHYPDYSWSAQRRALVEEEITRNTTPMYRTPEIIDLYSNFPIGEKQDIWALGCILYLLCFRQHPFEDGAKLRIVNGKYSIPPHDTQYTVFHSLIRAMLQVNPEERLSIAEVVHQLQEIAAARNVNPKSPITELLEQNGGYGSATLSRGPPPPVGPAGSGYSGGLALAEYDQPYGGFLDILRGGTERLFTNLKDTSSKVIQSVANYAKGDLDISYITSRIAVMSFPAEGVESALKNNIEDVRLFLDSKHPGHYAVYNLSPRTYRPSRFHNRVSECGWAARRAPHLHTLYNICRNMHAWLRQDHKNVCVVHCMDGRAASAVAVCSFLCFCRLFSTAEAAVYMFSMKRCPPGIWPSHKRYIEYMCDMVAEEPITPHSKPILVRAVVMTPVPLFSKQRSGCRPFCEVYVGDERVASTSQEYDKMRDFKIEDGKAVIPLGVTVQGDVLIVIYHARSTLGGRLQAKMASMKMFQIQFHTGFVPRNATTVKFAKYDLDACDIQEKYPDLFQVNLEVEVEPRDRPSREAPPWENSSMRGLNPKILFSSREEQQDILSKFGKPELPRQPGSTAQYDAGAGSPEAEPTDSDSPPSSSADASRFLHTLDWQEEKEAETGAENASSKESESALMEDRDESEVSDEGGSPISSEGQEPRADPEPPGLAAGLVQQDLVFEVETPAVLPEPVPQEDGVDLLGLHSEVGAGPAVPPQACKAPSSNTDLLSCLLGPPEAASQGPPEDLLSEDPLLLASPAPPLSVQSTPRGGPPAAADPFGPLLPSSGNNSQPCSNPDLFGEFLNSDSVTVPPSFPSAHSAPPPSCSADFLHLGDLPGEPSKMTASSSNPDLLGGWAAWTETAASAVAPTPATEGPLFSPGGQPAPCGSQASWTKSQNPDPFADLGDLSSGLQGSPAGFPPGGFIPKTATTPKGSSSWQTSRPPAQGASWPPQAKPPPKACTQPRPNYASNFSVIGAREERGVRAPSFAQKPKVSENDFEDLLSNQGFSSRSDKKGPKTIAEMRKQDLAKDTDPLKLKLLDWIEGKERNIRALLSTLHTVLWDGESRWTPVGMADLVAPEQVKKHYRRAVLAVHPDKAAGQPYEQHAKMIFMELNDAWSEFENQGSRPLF

Test [5] concerns the target Adenylate kinase 2, mitochondrial (Homo sapiens, UniProt P54819).
For test [6], the target named is T3, Phosphatidylinositol 5-phosphate 4-kinase type-2 gamma (Homo sapiens, UniProt Q8TBX8).
T3 sequence (Q8TBX8 whole entry): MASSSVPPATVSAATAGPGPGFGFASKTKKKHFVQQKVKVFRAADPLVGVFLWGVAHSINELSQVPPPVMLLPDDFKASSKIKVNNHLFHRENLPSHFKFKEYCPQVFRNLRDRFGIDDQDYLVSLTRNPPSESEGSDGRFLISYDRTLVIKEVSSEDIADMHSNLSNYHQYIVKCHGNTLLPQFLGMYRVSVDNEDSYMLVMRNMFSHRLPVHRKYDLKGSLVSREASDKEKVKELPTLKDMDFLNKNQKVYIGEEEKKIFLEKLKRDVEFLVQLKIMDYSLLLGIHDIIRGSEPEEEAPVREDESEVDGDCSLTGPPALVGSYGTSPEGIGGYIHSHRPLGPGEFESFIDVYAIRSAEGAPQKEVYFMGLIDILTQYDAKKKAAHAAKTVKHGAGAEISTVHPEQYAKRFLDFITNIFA

The target in test [7] is Mitogen-activated protein kinase 7 (Homo sapiens, UniProt Q13164).
Test [8] has as its target Ribosomal protein S6 kinase alpha-3 (Homo sapiens, UniProt P51812).
For test [9], the target named is T4, MAP kinase-activated protein kinase 5 (Homo sapiens, UniProt Q8IW41).
T4 sequence (Q8IW41 whole entry): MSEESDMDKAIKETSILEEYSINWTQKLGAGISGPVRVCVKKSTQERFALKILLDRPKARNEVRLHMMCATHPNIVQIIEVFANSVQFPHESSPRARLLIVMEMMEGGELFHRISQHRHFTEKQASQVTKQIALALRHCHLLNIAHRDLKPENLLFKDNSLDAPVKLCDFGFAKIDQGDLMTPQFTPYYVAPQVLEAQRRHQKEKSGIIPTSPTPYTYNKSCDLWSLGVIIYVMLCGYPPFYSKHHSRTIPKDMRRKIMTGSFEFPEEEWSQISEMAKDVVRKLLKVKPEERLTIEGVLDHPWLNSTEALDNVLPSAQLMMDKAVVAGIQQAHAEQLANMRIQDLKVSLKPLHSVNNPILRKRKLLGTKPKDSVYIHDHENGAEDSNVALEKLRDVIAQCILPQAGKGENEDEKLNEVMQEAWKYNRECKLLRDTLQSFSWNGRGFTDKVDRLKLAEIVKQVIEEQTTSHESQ

Calls of active or inactive are those of the source.
Note: in the data inactive means no Kd found up to 30 µM.

Sequence of Insulin receptor (P06213 28-758 limits assumed): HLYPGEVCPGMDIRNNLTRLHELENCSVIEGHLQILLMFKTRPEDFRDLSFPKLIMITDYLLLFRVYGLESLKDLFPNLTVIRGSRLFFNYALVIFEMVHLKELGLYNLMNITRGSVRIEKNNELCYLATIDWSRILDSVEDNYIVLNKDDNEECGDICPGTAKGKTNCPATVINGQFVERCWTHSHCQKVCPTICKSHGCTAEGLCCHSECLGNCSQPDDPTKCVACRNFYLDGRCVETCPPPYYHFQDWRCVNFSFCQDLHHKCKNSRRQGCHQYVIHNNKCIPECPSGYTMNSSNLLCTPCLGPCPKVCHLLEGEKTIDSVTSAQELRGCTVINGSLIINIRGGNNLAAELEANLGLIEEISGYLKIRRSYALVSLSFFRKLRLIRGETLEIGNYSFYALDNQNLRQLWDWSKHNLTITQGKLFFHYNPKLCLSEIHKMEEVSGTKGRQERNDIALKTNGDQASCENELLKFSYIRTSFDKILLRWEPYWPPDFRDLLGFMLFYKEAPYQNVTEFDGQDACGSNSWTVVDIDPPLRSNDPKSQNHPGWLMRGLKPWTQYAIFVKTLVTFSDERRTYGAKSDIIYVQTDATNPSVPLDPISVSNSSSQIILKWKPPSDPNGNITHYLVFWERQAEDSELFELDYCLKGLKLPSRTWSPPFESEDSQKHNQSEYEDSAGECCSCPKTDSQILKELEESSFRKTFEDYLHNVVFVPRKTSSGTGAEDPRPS
Sequence of Insulin receptor (P06213 763-1382 limits assumed): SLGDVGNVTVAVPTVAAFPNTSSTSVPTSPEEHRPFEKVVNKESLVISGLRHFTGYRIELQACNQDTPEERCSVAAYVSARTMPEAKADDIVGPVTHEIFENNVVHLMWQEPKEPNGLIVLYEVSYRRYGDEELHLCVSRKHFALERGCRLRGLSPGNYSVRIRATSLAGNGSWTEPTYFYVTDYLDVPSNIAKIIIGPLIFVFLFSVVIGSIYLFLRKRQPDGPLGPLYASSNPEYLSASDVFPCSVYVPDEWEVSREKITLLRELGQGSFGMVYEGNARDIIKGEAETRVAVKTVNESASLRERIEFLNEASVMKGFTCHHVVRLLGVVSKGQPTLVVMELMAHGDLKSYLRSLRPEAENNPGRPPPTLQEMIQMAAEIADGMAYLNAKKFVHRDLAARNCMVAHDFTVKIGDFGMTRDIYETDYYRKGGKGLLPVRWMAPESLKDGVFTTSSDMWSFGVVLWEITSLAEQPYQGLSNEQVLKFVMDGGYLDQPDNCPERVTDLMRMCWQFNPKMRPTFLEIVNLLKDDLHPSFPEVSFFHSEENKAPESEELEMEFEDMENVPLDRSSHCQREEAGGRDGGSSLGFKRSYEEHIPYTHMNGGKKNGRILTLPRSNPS
Sequence of Ephrin type-A receptor 2 (P29317 whole entry): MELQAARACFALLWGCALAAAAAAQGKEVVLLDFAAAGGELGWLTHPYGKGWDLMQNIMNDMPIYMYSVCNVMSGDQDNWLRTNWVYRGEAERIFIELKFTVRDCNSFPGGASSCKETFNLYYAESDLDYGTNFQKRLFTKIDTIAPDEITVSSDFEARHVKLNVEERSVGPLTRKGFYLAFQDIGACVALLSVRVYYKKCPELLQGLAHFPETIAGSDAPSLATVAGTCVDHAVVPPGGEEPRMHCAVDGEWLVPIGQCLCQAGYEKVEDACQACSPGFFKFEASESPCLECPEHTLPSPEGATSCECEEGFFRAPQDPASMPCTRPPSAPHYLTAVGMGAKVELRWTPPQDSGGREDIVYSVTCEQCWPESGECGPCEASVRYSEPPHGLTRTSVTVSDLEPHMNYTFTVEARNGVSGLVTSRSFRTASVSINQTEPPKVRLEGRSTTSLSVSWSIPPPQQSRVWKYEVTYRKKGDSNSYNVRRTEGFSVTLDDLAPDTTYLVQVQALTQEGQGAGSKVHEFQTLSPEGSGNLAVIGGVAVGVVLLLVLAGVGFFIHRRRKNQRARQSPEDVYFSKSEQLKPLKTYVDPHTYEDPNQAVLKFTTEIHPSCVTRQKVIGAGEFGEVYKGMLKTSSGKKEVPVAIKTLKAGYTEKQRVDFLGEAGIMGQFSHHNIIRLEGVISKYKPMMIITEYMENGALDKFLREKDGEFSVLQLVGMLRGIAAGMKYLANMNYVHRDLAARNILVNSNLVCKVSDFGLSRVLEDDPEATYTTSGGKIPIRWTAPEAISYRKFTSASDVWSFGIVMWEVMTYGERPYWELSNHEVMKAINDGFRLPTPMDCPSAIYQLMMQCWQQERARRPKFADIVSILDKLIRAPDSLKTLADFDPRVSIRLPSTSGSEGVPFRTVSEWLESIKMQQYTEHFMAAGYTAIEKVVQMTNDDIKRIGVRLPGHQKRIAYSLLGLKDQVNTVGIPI
Sequence of Mitogen-activated protein kinase 7 (Q13164 whole entry): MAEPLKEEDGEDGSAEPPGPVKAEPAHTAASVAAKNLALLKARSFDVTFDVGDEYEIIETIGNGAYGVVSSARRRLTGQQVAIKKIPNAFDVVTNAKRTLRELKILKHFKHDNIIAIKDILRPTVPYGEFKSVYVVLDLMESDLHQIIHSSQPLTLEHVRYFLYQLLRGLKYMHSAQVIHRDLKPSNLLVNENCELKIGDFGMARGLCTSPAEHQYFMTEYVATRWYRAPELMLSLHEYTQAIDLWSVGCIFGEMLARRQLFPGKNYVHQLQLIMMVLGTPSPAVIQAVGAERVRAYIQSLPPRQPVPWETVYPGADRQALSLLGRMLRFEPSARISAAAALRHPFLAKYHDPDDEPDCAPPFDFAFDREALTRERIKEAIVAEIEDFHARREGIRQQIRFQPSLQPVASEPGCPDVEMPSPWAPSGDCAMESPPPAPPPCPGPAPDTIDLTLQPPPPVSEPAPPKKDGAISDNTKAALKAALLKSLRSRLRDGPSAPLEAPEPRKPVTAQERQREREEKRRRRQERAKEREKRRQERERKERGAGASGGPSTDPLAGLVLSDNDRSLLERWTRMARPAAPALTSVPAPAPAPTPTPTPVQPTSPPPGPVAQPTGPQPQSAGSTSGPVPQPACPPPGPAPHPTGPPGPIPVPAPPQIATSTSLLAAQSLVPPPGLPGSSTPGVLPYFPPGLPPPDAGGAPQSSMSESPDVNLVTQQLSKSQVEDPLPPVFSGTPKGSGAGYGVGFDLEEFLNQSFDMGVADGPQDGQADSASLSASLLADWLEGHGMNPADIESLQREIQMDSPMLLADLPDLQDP
Sequence of Ribosomal protein S6 kinase alpha-3 (P51812 whole entry): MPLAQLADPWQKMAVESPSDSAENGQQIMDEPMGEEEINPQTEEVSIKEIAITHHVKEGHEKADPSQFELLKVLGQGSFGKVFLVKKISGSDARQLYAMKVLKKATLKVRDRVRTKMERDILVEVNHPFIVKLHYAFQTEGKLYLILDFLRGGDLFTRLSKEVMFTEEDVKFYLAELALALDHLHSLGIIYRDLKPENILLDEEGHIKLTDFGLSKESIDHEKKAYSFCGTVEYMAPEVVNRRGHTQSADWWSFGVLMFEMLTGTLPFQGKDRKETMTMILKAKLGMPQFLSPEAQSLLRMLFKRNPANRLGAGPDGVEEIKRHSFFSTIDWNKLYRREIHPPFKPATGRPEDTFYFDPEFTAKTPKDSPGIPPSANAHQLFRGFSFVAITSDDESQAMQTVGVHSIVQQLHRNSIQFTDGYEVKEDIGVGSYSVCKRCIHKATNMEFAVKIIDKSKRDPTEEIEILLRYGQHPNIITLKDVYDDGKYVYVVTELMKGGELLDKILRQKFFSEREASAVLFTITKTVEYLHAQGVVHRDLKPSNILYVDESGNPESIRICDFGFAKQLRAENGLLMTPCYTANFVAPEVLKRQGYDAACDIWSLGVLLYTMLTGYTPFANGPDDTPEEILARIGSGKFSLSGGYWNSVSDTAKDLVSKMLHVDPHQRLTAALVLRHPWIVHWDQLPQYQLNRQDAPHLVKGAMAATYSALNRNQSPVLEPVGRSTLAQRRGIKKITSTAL

The Kd is the concentration at which binding is half-saturated. Regarding `COC(=O)[C@@]1(O)C[C@H]2O[C@]1(C)n1c3ccccc3c3c4c(c5c6ccccc6n2c5c31)C(=O)NC4` [K-252A], the Kd in test [1] was > 30 µM (inactive); in [2], > 30 µM (inactive); in test [3], > 30 µM (inactive); in test [4], 1.27 µM (active); in [5], > 30 µM (inactive); in [6], > 30 µM (inactive). Moreover, the Kd in [7] was > 30 µM (inactive); in [8], 2.99 µM (active); in [9] it was > 30 µM (inactive).

For the molecule `Cn1cc(-c2ccc3nnc(C(F)(F)c4ccc5ncccc5c4)n3n2)cn1` [JNJ-38877605], the Kd is > 30 µM (inactive) in test [1]; > 30 µM (inactive) in [2]; > 30 µM (inactive) in test [3]; > 30 µM (inactive) in test [4]; > 30 µM (inactive) in test [5]; 0.32 µM (active) in test [6]. Further, the Kd in [7], in test [8] and in [9] was > 30 µM (inactive) throughout.

In the case of `Cc1cc([C@@H](C)Nc2ccccc2C(=O)O)c2nc(N3CCOCC3)cc(=O)n2c1` [AZD-6482], the Kd was > 30 µM (inactive) in test [1]; > 30 µM (inactive) in [2]; 4.1 µM in test [3]; > 30 µM (inactive) in [4]; > 30 µM (inactive) in test [5]; > 30 µM (inactive) in [6]. The Kd in [7], in test [8] and in test [9] was > 30 µM (inactive) each time.

Regarding `COc1cc(CCc2cc(NC(=O)c3ccc(N4C[C@@H](C)N[C@@H](C)C4)cc3)n[nH]2)cc(OC)c1` [AZD-4547], the Kd in [1], in [2], in test [3], in test [4], in [5] and in test [6] was > 30 µM (inactive) in each case. The Kd in test [7], in test [8] and in test [9] was > 30 µM (inactive) each time.

For the molecule `CNC(=O)c1ccc(-c2cnc3ncc(Cc4ccc5ncccc5c4)n3n2)cc1F` [CAPMATINIB], the Kd in [1], in test [2], in test [3], in [4], in test [5] and in test [6] was > 30 µM (inactive) in each case. In addition, the Kd in test [7], in test [8] and in test [9] was > 30 µM (inactive) in each case.

Regarding `CN1CC[C@@H](c2c(O)cc(O)c3c(=O)cc(-c4ccccc4Cl)oc23)[C@@H]1CO`, the Kd in test [1], in test [2], in test [3], in test [4], in [5] and in [6] was > 30 µM (inactive) throughout. Moreover, the Kd in [7], in test [8] and in test [9] was > 30 µM (inactive) throughout.

With `CCN1CCN(Cc2ccc(-c3cc4c(N[C@H](C)c5ccccc5)ncnc4[nH]3)cc2)CC1` [AEE-788], the Kd in test [1], in test [2], in [3], in test [4], in test [5] and in [6] was > 30 µM (inactive) in each case. In addition, the Kd in test [7], in test [8] and in [9] was > 30 µM (inactive) in each case.

In the case of `C[C@@H]1CN(Cc2ccc(F)cc2)[C@@H](C)CN1C(=O)c1cc2c(C(=O)C(=O)N(C)C)cn(C)c2cc1Cl` [TALMAPIMOD], the Kd in test [1], in [2], in test [3], in [4], in test [5] and in [6] was > 30 µM (inactive) throughout. In addition, the Kd in test [7], in [8] and in [9] was > 30 µM (inactive) in each case.

(Values after ChEMBL document CHEMBL3991601, “The target landscape of clinical kinase drugs” (Science, 2017).)
